In US12264173B2 (GILEAD SCIENCES, INC., priority 2020, dated 2025) one finds EC50 data, which are given here for 16 compounds.

Assay [1] deals with RSV strain A2. In words: microbe, parasite or virus in culture. The following applies: read-out: RSV HEp-2 EC50. In kind it is cell-based. How it is done: Antiviral activity against RSV is determined using an infectious cytopathic cell protection assay in HEp-2 cells. In this assay, compounds inhibiting viral infection and/or replication produce a cytoprotective effect against the virus-induced cell killing that can be quantified using a cell viability reagent. The techniques used here are novel adaptations of methods described in published literature (Chapman et al., Antimicrob Agents Chemother. 2007, 51(9):3346-53.).
HEp-2 cells are obtained from ATCC (Manassas, VI) and maintained in MEM media supplemented with 10% fetal bovine serum and penicillin/streptomycin. Cells are passaged twice a week and kept at subconfluent stage. Commercial stock of RSV strain A2 (Advanced Biotechnologies, Columbia, MD) is titered before compound testing to determine the appropriate dilution of the virus stock that generates desirable cytopathic effect in HEp-2 cells.
For antiviral tests, HEp-2 cells are grown in large cell culture flasks to near confluency but not fully so. The compounds to be tested are prediluted in DMSO in 384-well compound dilution plates, either in an 8 or 40 sample per plate standardized dose response format. 3-fold serial dilution increments of each test compound are prepared in the plates and test samples are transferred via acoustic transfer apparatus (Echo, Labcyte) at 100 nL per well into cell culture assay 384-well plates. Each compound dilution is transferred in single or quadruplicate samples into dry assay plates, which are stored until assay is ready to go. The positive and negative controls are laid out in opposite on ends of the plate in vertical blocks (1 column).
Subsequently, an infectious mixture is prepared using an appropriate dilution of virus stock previously determined by titration with cells at a density of 50,000/mL and 20 µL/well is added to test plates w/compounds via automation (uFlow, Biotek). Each plate includes negative and positive controls (16 replicates each) to create 0% and 100% virus inhibition standards, respectively. Following the infection with RSV, testing plates are incubated for 4 days in a 37° C. cell culture incubator. After the incubation, a cell viability reagent, Cell TiterGlo (Promega, Madison, WI) is added to the assay plates, which are incubated briefly, and a luminescent readout is measured (Envision, Perkin Elmer) in all the assay plates. The RSV-induced cytopathic effect, percentage inhibition, is determined from the levels of remaining cell viability. […] Various potent anti-RSV tool compounds are used as positive controls for antiviral activity.

Assay [2] has as its system RSV A2. In words: RSV NHBE EC50 (RSV A2 antiviral assay in NHBE cells). It is filed as cell-based. The following applies: read-out: RSV NHBE EC50. As to the method: Normal human bronchial epithelial (NHBE) cells were purchased from Lonza (Walkersville, MD, Cat #CC-2540) and cultured in Bronchial Epithelial Growth Media (BEGM) (Lonza, Walkersville, MD, Cat #CC-3170). The cells were passaged 1-2 times per week to maintain <80% confluency. The NHBE cells were discarded after 6 passages in culture.
To conduct the RSV A2 antiviral assay, NHBE cells were plated in 96-well plates at a density of 7,500 cells per well in BEGM and allowed to attach overnight at 37° C. Following attachment, 100 μL of cell culture media was removed and 3-fold serially diluted compound was added using a Hewlett-Packard D300 Digital Dispenser. The final concentration of DMSO was normalized to 0.05%. Following compound addition, the NHBE cells were infected by the addition of 100 μL of RSV A2 at a titer of 1×10^4.5 tissue culture infectious doses/mL in BEGM and then incubated at 37° C. for 4 days. The NHBE cells were then allowed to equilibrate to 25° C. and cell viability was determined by removing 100 μL of culture medium and adding 100 μL of Cell-Titer Glo viability reagent. The mixtures were incubated for 10 minutes at 25° C., and the luminescence signal was quantified on an Envision luminescence plate reader.

Where [3] appears, read: human respiratory syncytial virus, HEp-2, 96 h, Table 3, HEp-2 cells, RSV A2, 4 days.
Setting [4] is: human respiratory syncytial virus, NHBE, 96 h, Table 3, NHBE cells, RSV A2, 4 days.
[5] abbreviates: Table 3, HEp-2 cells, RSV A2, 4 days.
Where [6] appears, read: Table 3, NHBE cells, RSV A2, 4 days.

Read-outs that look alike come from different tables or passages of the source.

As a reminder, the EC50 is the concentration at which the effect is half-maximal.

For `CCOC(=O)[C@H](C)N[P@@](=O)(OC[C@@]1(C#N)O[C@@H](c2ccc3c(N)ncnn23)[C@H](OC(=O)C(C)C)[C@@H]1OC(=O)C(C)C)Oc1ccccc1` (single isomer, unassigned) [Example 249], the EC50 in assay [1] (setting [3]) amounted to 47 nM; in assay [2] (setting [4]) it was 24 nM.

As to `CC(=O)O[C@H]1[C@H](c2ccc3c(N)ncnn23)O[C@](C#N)(CO[P@@](=O)(N[C@@H](C)C(=O)OC2CCCCC2)Oc2ccccc2)[C@H]1OC(C)=O` [Example 81, (2R,3S,4S,5S)-5-(4-aminopyrrolo[2,1-f][1,2,4]triazin-7-yl)-2-cyano-2-((((S)-(((S)-1-(cyclohexyloxy)-1-oxopropan-2-yl)amino)(phenoxy)phosphoryl)oxy)methyl) tetrahydrofuran-3,4-diyl diacetate], the EC50 is 194 nM in assay [1] (setting [3]) and 22 nM in assay [2] (setting [4]).

With `CCCCOC(=O)C(C)NP(=O)(OCC1(C#N)OC(c2ccc3c(N)ncnn23)C(OC(=O)C(C)C)C1OC(=O)C(C)C)Oc1ccccc1` (single isomer, unassigned) [Example 227], the values for the EC50 in assay [1] (setting [5]) and in assay [2] (setting [6]) were 17 nM and 12 nM, respectively.

In the case of `COC(=O)[C@H](C)NP(=O)(OC[C@@]1(C#N)O[C@@H](c2ccc3c(N)ncnn23)[C@H](OC(=O)C(C)C)[C@@H]1OC(=O)C(C)C)Oc1ccc(C[C@H](N)C(=O)OC(C)C)cc1` (stereo partly drawn) [Example 251, (2R,3S,4S,5S)-2-((((4-((S)-2-amino-3-isopropoxy-3-oxopropyl)phenoxy)(((S)-1-methoxy-1-oxopropan-2-yl)amino)phosphoryl)oxy)methyl)-5-(4-aminopyrrolo[2,1-f][1,2,4]triazin-7-yl)-2-cyanotetrahydrofuran-3,4-diyl bis(2-methylpropanoate)], the EC50 in assay [1] (setting [3]) is 186 nM; in assay [2] (setting [4]) it was 37 nM.

As to `CC(C)C(=O)OC1C(c2ccc3c(N)ncnn23)OC(C#N)(COP(=O)(NC(C)C(=O)OC2CCN(C)C2)Oc2ccccc2)C1OC(=O)C(C)C` (single isomer, unassigned) [Example 233], the figures for the EC50 in assay [1] (setting [5]) and in assay [2] (setting [6]) were 127 nM and 29 nM, respectively.

In the case of `COC(=O)[C@H](C)NP(=O)(O)OC[C@@]1(C#N)O[C@@H](c2ccc3c(N)ncnn23)[C@H](OC(=O)C(C)C)[C@@H]1OC(=O)C(C)C` [Example 242, ((2R,3S,4S,5S)-5-(4-aminopyrrolo[2,1-f][1,2,4]triazin-7-yl)-2-cyano-3,4-bis(isobutyryloxy)tetrahydrofuran-2-yl)methyl ((S)-1-methoxy-1-oxopropan-2-yl)phosphoramidate], the EC50 is 7190 nM in assay [1] (setting [3]) and more than 5000 nM in assay [2] (setting [4]).

On to `CC(C)C(=O)O[C@H]1[C@H](c2ccc3c(N)ncnn23)O[C@](C#N)(COP(=O)(N[C@@H](C)C(=O)OCC(C)(C)O)Oc2ccccc2)[C@H]1OC(=O)C(C)C` (stereo partly drawn) [Example 256, (2R,3S,4S,5S)-5-(4-aminopyrrolo[2,1-f][1,2,4]triazin-7-yl)-2-cyano-2-((((((S)-1-(2-hydroxy-2-methylpropoxy)-1-oxopropan-2-yl)amino)(phenoxy)phosphoryl)oxy)methyl)tetrahydrofuran-3,4-diyl bis(2-methylpropanoate)], for which the EC50 in assay [2] (setting [4]) came out at 20 nM.

In the case of `CCOC(=O)[C@H](C)NP(=O)(OC[C@@]1(C#N)O[C@@H](c2ccc3c(N)ncnn23)[C@H](OC(=O)C(C)C)[C@@H]1OC(=O)C(C)C)Oc1ccccc1` (mixture of isomers) [Example 248, (2R,3S,4S,5S)-5-(4-aminopyrrolo[2,1-f][1,2,4]triazin-7-yl)-2-cyano-2-((((((S)-1-ethoxy-1-oxopropan-2-yl)amino)(phenoxy)phosphoryl)oxy)methyl)tetrahydrofuran-3,4-diyl bis(2-methylpropanoate)], in assay [1] (setting [3]), the EC50 came to 23 nM.

Take `COC(=O)[C@H](C)NP(=S)(OC[C@@]1(C#N)O[C@@H](c2ccc3c(N)ncnn23)[C@H](OC(=O)C(C)C)[C@@H]1OC(=O)C(C)C)Oc1ccccc1` (stereo partly drawn) [Example 250, (2R,3S,4S,5S)-5-(4-aminopyrrolo[2,1-f][1,2,4]triazin-7-yl)-2-cyano-2-((((((S)-1-methoxy-1-oxopropan-2-yl)amino)(phenoxy)phosphorothioyl)oxy)methyl) tetrahydrofuran-3,4-diyl bis(2-methylpropanoate)]: the EC50 in assay [1] (human respiratory syncytial virus, HEp-2, 96 h) amounted to 3930 nM; in assay [2] (human respiratory syncytial virus, NHBE, 96 h), 2420 nM.

Turning to `CC(C)C(=O)O[C@H]1[C@H](c2ccc3c(N)ncnn23)O[C@](C#N)(COP(=O)(N[C@@H](C)C(=O)OCCN2CCOCC2)Oc2ccccc2)[C@H]1OC(=O)C(C)C` (stereo partly drawn) [Example 223, (2R,3S,4S,5S)-5-(4-aminopyrrolo[2,1-f][1,2,4]triazin-7-yl)-2-cyano-2-((((((S)-1-(2-morpholinoethoxy)-1-oxopropan-2-yl)amino)(phenoxy)phosphoryl)oxy)methyl) tetrahydrofuran-3,4-diyl bis(2-methylpropanoate)], the EC50 in assay [1] (setting [3]) came to 1720 nM; in assay [2] (setting [4]) it was 223 nM.

Regarding `CC(C)C(=O)O[C@H]1[C@H](c2ccc3c(N)ncnn23)O[C@](C#N)(COP(=O)(N[C@@H](C)C(=O)O[C@@H]2CCOC2)Oc2ccccc2)[C@H]1OC(=O)C(C)C` (single isomer, unassigned) [Example 243], the EC50 in assay [1] (setting [5]) is 15 nM; in assay [2] (setting [4]), 11 nM.

`CC(C)C(=O)O[C@H]1[C@H](c2ccc3c(N)ncnn23)O[C@](C#N)(COP(=O)(N[C@@H](C)C(=O)OCC(C)(C)OP(=O)(O)O)Oc2ccccc2)[C@H]1OC(=O)C(C)C` (stereo partly drawn) [Example 262, (2R,3S,4S,5S)-5-(4-aminopyrrolo[2,1-f][1,2,4]triazin-7-yl)-2-cyano-2-((((((S)-1-(2-methyl-2-(phosphonooxy)propoxy)-1-oxopropan-2-yl)amino)(phenoxy)phosphoryl)oxy)methyl)tetrahydrofuran-3,4-diyl bis(2-methylpropanoate)]: the EC50 in assay [1] (setting [3]) amounted to 163 nM.

For the compound `CCCCOC(=O)[C@H](C)NP(=O)(OC[C@@]1(C#N)O[C@@H](c2ccc3c(N)ncnn23)[C@H](OC(=O)C(C)C)[C@@H]1OC(=O)C(C)C)Oc1ccccc1` (mixture of isomers) [Example 225, (2R,3S,4S,5S)-5-(4-aminopyrrolo[2,1-f][1,2,4]triazin-7-yl)-2-((((((S)-1-butoxy-1-oxopropan-2-yl)amino)(phenoxy)phosphoryl)oxy)methyl)-2-cyanotetrahydrofuran-3,4-diyl bis(2-methylpropanoate)], the EC50 in assay [2] (setting [4]) was 14 nM.

Regarding `CCC(=O)OC1[C@H](c2ccc3c(N)ncnn23)O[C@](C#N)(COP(=O)(N[C@@H](C)C(=O)OCC2CC2)Oc2ccccc2)[C@H]1OC(=O)CC` (stereo in doubt) [Example 98, (2R,3S,4R,5S)-5-(4-aminopyrrolo[2,1-f][1,2,4]triazin-7-yl)-2-cyano-2-((((((S)-1-(cyclopropylmethoxy)-1-oxopropan-2-yl)amino)(phenoxy)phosphoryl)oxy)methyl) tetrahydrofuran-3,4-diyl dipropionate], the figures for the EC50 in assay [1] (setting [3]) and in assay [2] (setting [4]) were 48 nM and 17 nM, respectively.

Take `CCOCCOCCOC(=O)[C@H](C)NP(=O)(OC[C@@]1(C#N)O[C@@H](c2ccc3c(N)ncnn23)[C@H](OC(=O)C(C)C)[C@@H]1OC(=O)C(C)C)Oc1ccccc1` (single isomer, unassigned) [Example 263]: the EC50 in assay [1] (setting [3]) came out at 23 nM.

Take `CCOC(=O)[C@H](C)NP(=O)(N[C@@H](C)C(=O)OCC)OC[C@@]1(C#N)O[C@@H](c2ccc3c(NC(=O)C(C)C)ncnn23)[C@H](OC(=O)C(C)C)[C@@H]1OC(=O)C(C)C` [Example 145, ((2R,3S,4R,5S)-5-(4-isobutyramidopyrrolo[2,1-f][1,2,4]triazin-7-yl)-2-cyano-3,4-diisobutylatetetrahydrofuran-2-yl)methyl bis-ethyl L-alaninate phosphate]: the EC50 in assay [2] (setting [4]) came out at 40 nM.
